Holding throughout (assay type): in vivo, rat
The test system of test [1] is rats. The test can be described thus: Phase III: dose response to (S)-amlodipine malate in absence and presence of an ARB (co-administration). Conditions: for Potential Dosage Adjustment (%) of (S)-amlodipine malate (adjustment factor): co-administration with the named ARB, relative to ED50 92 μg/kg alone; for dose response curve of ARB plus (S)-amlodipine malate relative to (S)-amlodipine malate alone: ARB at its ED30 dose. The protocol:
(§1) (S)-amlodipine malate and seven ARBs (candasartan, eprosartan, irbesartan, losartan, olmesartan, telmisartan and valsartan) were evaluated. The study was conducted in three parts. Phase I evaluated the time-course of the hypotensive actions of all eight agents ([S]-amlodipine and the seven ARBs). In Phase II, the dose-responsive effects of [S]-amlodipine malate and the seven ARBs were evaluated individually. From this phase of the study, ED30 and ED50 doses of each of the seven ARBs were identified, defined as the dose that produced 30 or 50 percent of the hypotensive effect produced by a rapid i.v. injection (30 μg/kg) of sodium nitroprusside (NTP), a short-acting vasodilator. In Phase III, the dose response to [S]-amlodipine was evaluated in the presence and absence of the ED30 and ED50 dose of each of the seven ARBs, with the objective of comparing the extent to which each ARB, at its ED30 or ED50, shifted the dose-response curve of [S]-amlodipine to the left and thus, lowering the apparent ED50 of the calcium channel blocker.
(§2) Animals were anesthetized with thiobutabarbital sodium (Inactin®, 150 mg/kg, delivered i.p.), tracheotomized and placed on a thermostatically controlled heating pad (37-38° C.). The jugular vein and the carotid artery were cannulated with PE-50 tubing for drug administration and recording of cardiovascular parameters, respectively. Blood pressure was recorded from the carotid artery by means of a pressure transducer and heart rate was derived electronically from the blood pressure signal. The signal output derived electronically from the arterial pressure was analyzed with a digital computer. The software IOX-16 continuously recorded the data every 5 sec during the entire procedure for each rat. Raw arterial pressure (in mmHg) and heart rate (beats per min), as well as changes in these two parameters relative to baseline or pre-drug levels (for doses other than initial dose), both in raw units (mm Hg or beats per min [bpm]) and as percentage change from baseline were captured and analyzed. The animals were allowed to equilibrate for 15-20 min before any treatment.
(§3) Doses are expressed in terms of free active substance. Each treatment was administered in a volume of 1 mL/kg by slow (over 20-30 seconds) i.v. bolus for all test articles, in all three phases.
(§4) The data were reported as mean ±S.E.M. (standard error of the mean) from 3-5 rats per group. Raw arterial pressure (in mmHg) and heart rate (beats per min), as well as changes in these two parameters relative to baseline or pre-drug levels (for doses other than initial dose), both in raw units (mmHg or beats per min [bpm]) and as percentage change from baseline, were captured and analyzed.
(§5) ED30 and ED50 for each drug were defined as the dose causing a decline in arterial pressure corresponding to 30% and to 50%, respectively, of the maximal drop in blood pressure produced by fast bolus i.v. injection (30 μg/kg) of sodium nitroprusside.
Dose-response curves with (S)-amlodipine malate in the absence and presence of each of the seven ARBs at its ED30 are shown in FIGS. 1A and 1B. The data shown in the figures are from experiments in which ED30 doses of each of the ARBs was combined with (S)-amlodipine malate. These were chosen because ED30 doses were obtainable by direct interpolation of dose response curves from Phase II. For several of the ARBs, doses corresponding to ED50 were obtained from extrapolation of their dose response curves.

Test [2] concerns rats. Nature of the test: Phase II: dose-response of hypotensive effect, ED30/ED50 relative to sodium nitroprusside. The protocol: as §1, §2, §3, §4, §5
In this phase, the hypotensive response to sodium nitroprusside (NTP, 30 μg/kg, i.v. bolus), which was injected once at the end of the equilibration period, was used as a comparator and ED30 and ED50 doses were estimated as the percentage of the maximum NTP effect.

The test system of test [3] is rats. Conditions: anesthetized rats, 100 μg/kg i.v. The protocol:
as §1
as §2, with “The animals were allowed to equilibrate for 15-20 min before any treatment.” left out

Where [4] appears, read: i.v., anesthetized rats, from dose-response curve.

Structures are written as SMILES.

As for `CCCCc1ncc(/C=C(\Cc2cccs2)C(=O)O)n1Cc1ccc(C(=O)O)cc1` [Eprosartan, (E)-α-[[2-butyl-1-[(4-carboxyphenyl)methyl]-1H-imidazol-5-yl]methylene]-2-thiophenepropanoic acid], the “Potential Dosage Adjustment (%) of (S)-amlodipine malate (adjustment factor)” value (shortened to “Potential Dosage Adjustment (%)”) with rats [1] stood at 24%.

As to `CCCCc1nc(Cl)c(CO)n1Cc1ccc(-c2ccccc2-c2nnn[nH]2)cc1` [Losartan, 2-butyl-4-chloro-1-[[2′-(1H-tetrazol-5-yl)[1,1′-biphenyl]-4-yl]methyl]-1H-imidazole-5-methanol], in the test with rats [1], the “Potential Dosage Adjustment (%)” value was found to be 15%.

For `CCCCC(=O)N(Cc1ccc(-c2ccccc2-c2nnn[nH]2)cc1)[C@H](C(=O)O)C(C)C` [Valsartan, N-(1-oxopentyl)-N-[[2′-(1H-tetrazol-5-yl)[1,1′-biphenyl]-4-yl]methyl]-L-valine], in the test with rats [1], the “dose response curve of ARB plus (S)-amlodipine malate relative to (S)-amlodipine malate alone” value was “greatest leftward shift” and the “Potential Dosage Adjustment (%)” value is reported as 32%. Further, the “ED30 (dose causing 30% of the maximal drop in blood pressure produced by sodium nitroprusside)” value with rats [2] (setting [4]) was found to be 0.229 mg/kg. Moreover, in the test on rats [3], the “time to maximum hypotensive effect post-injection” value is “five”.

Take `CCOC(=O)C1=C(COCCN)NC(C)=C(C(=O)OC)[C@@H]1c1ccccc1Cl.O=C(O)C[C@H](O)C(=O)O` [(S)-amlodipine malate]: the “ED50 of (S)-amlodipine malate in the absence of an ARB” value in the test on rats [1] (i.v., anesthetized rats, Phase III) is 0.092 mg/kg. Moreover, in the test with rats [2] (setting [4]), the “ED30 (dose causing 30% of the maximal drop in blood pressure produced by sodium nitroprusside)” value amounted to 0.056 mg/kg and the “ED50 (dose causing 50% of the maximal drop in blood pressure produced by sodium nitroprusside), estimated” value was 0.11 mg/kg. In the test with rats [3], the “maximum decrease in blood pressure” value is 14-17 mmHg and the “time to maximum hypotensive effect post-injection” value is reported as 35 to 55 min.

With `CCCCC1=NC2(CCCC2)C(=O)N1Cc1ccc(-c2ccccc2-c2nnn[nH]2)cc1` [Irbesartan, 2-butyl-3-[[2′-(1H-tetrazol-5-yl)[1,1′-bephenyl]-4-yl]methyl]-1,3-diazaspiro[4,4]non-1-en-4-one], in the test on rats [1], the “Potential Dosage Adjustment (%)” value is listed as 23%.

With `CCOc1nc2cccc(C(=O)O)c2n1Cc1ccc(-c2ccccc2-c2nnn[nH]2)cc1` [Candasartan, 2-ethoxy-1-[[2′-(1H-tetrazol-5-yl)[1,1′-biphenyl]-4-yl]methyl]-1H-benzimidazole-7-carboxylic acid], the “dose response curve of ARB plus (S)-amlodipine malate relative to (S)-amlodipine malate alone” value in the test on rats [1] is given as “offset”. For the same compound, the “decline in MBP at the next higher dose” value in the test with rats [2] (300 mg/kg i.v. (so in the source)) is given as “no further decline”. The “ED30 (dose causing 30% of the maximal drop in blood pressure produced by sodium nitroprusside)” value in the test with rats [2] (setting [4]) was 0.008 mg/kg.

Take `CCCc1nc2c(C)cc(-c3nc4ccccc4n3C)cc2n1Cc1ccc(-c2ccccc2C(=O)O)cc1` [Telmisartan, 4′-[(1,4′-dimethyl-2′-propyl[2,6′-bi-1H-benzimidazol]-1′-yl)methyl]-[1,1′-biphenyl]-2-carboxylic acid]: the “dose response curve of ARB plus (S)-amlodipine malate relative to (S)-amlodipine malate alone” value in the test on rats [1] is listed as “offset”.
